The results in this text go back to a melting point compilation (Tetko et al.; mined from patent text by program, amines drawn as free bases though some values may be those of a salt).

`N#Cc1nc(F)c(Cl)c(F)c1Cl`: the melting point (in general, the temperature of the solid-liquid transition) lay in the range of 78 to 79 °C.
For `C#CCOCc1cc(-c2ccc(C(F)(F)F)n(C)c2=O)c(F)cc1Cl` the value was 99 to 101 °C; for `CCCS(=O)(=O)N(C)CCc1ccncc1`, 109 to 110 °C; for `O=C1CSC(c2cccnc2)N1` (stereo not given), 135 to 137 °C.
`O=C1CCC(C2CCCCC2)C(=O)C1` (stereo not given) registered a melting point of 137 to 140 °C.
For `C#CCON=C(C(=O)O)c1nc(NC(=O)C(F)(F)F)sc1Cl` the value was 178 to 180 °C; for `O=C(O)C(=O)N1CCC(Oc2ccc(Cl)cc2)CC1`, 144 to 145 °C.
As for `COc1ccccc1-c1cccc(-n2cnc3cc(C4=NCCN4)ccc32)c1`, the figure is 221 to 224 °C; as for `O=C(O)Cc1cc2c(s1)-c1ccccc1OC2C1=CCCC=C1` (stereo not given), 105 to 110 °C; as for `Cn1c(=O)n(CC(=O)O)c(=O)c2cc([N+](=O)[O-])ccc21`, 217 to 220 °C.
On to `CCCCc1c(C(=O)c2ccc(OC)cc2)[nH]c2ccc([N+](=O)[O-])cc12`, for which the melting point was determined as 142 °C.
As for `COc1ccc(CSc2cccc(C(=O)Nc3ccc(C#N)cn3)c2)cc1`, the figure is 163 to 164 °C; as for `O=C(NC(Cc1ccc(OCc2ccccc2)cc1)C(=O)O)c1cn2cc(-c3ccccc3Cl)ccc2n1` (stereo not given), 228 °C; as for `CN1N=C(c2cccc(F)c2)c2cc(Cl)ccc2CS1(=O)=O`, 172 to 173 °C.
For `CC(C)[C@H](NC(=O)N(C)Cc1csc(C2CC2)n1)C(=O)N[C@@H](Cc1ccccc1)C[C@H](O)[C@H](Cc1ccccc1)NC(=O)OCc1cncs1` the value was 70 to 71 °C.
As for `C=C(c1cc(Cl)ccc1N1CCCCC1)C(C(N)=O)c1ccc(C(=O)OCC)cc1` (stereo not given), the figure is 142 to 145 °C.
The compound `Cn1ccnc1Sc1ccc2[nH]nc(N)c2c1` gave a melting point of 174 °C.
For `Nc1ccc(NC(=O)C=C2CC(C(=O)O)Nc3cc(Cl)cc(Cl)c32)cc1` (racemic) the value was above 250 °C; for `CS(=O)(=O)c1ccc([C@@H](CC2CCC(=O)CC2)C(=O)O)cc1Cl`, 129 to 131 °C.
In turn, `CCCOc1ccc2c(c1)C(OS(=O)(=O)F)=C(C(=O)OC)[C@H]2c1ccc2c(c1)OCO2` registered a melting point of 160 to 161 °C.
The compound `COc1ccc(Cl)cc1Cn1nc(-c2ccc(C(F)(F)F)cc2)oc1=O` yielded a melting point of 144 to 145 °C.
As for `COc1ccc(C2=NN(C3CCN(C(=O)CN4C(=O)CCC4=O)CC3)C(=O)C(C)(C)C2)cc1OC`, the figure is 177 to 179 °C; as for `CSc1sc(-c2nnc(C)o2)c2c1C(=O)CC(C)(C)C2`, 186 to 188 °C.
As for `COC1=C(OC)C(=O)C2=C(CCC(CC(=O)O)CC2)C1=O`, the figure is 130 to 132 °C; as for `CSC(=NC#N)N[C@@H]1c2cc(S(C)(=O)=O)ccc2OC(C)(C)[C@H]1O` (relative stereo), 219 to 220 °C; as for `N=C(N)NCCNc1c(C(=O)O)cnc2ccccc12`, 267 °C.
For `Cc1ccc(C)c(S(=O)(=O)N(C)CC(O)(CO)c2ccccc2)c1` (stereo not given) the value was 114 to 115 °C; for `O=C(SCC(Cc1ccc(Cl)cc1)C(=O)O)c1ccccc1` (stereo not given), 111 to 114 °C.
`O=Cc1ccnc2ccc(Cl)cc12` showed a melting point of 152 to 153 °C.
With `CC(C)(C)OC(=O)N1CCCC(c2ncc(-c3cnc(-c4ccccc4)nc3)[nH]2)C1` (stereo not given), the melting point came out at 130 °C.
Take `CCc1cc(N)c(C(=O)OC)c(CC)n1`: the melting point is 75 °C.
`O=C1c2c(c(=O)n3nc(-c4ccccc4)cc3n2CC(=NO)c2ccccc2)CN1C1CCCCC1` had a melting point above 280 °C.
For `N#Cc1c(Cl)c(Cl)n(O)c1-c1ccc(Cl)cc1` the value was 156 °C; for `OCC1C=CC(n2cnc3cc(Cl)c(Cl)cc32)C1` (stereo not given), 166 to 169 °C; for `COC(=O)c1nn(C2CCCCO2)cc1NC(=O)c1ccccc1` (stereo not given), 124 to 125 °C.
For `O=C(Nc1cccc(I)c1)C1CC1` the value was 112 °C.
For `CN(C)C1(c2ccccc2)CCC2(OCCc3c2[nH]c2ccccc32)C(CCO)C1` (stereo not given) the value was 311 to 314 °C.
Compound `CC(=O)C(C#N)c1ccc(F)c(F)c1` (stereo not given) showed a melting point of 147 to 152 °C.
The compound `COc1cc2c(c(OC)c1OC)-c1ccc(O)cc1[C@@H](NC(C)=O)CC2` came in with a melting point of 157 °C.
For `CN(C)c1nn(C(=O)Cl)c(=O)n1C` the value was 78 to 80 °C; for `COCCc1nc2c(N)nc3ccccc3c2n1CCCCNC(=O)c1cc2ccccc2cn1`, 199 to 200 °C.
For the compound `Cc1cc(CCCCCCCc2ccc(C#N)cc2)on1`, the melting point was 61 °C.
As for `Nc1ccc(C(=O)c2ccncc2)cc1`, the figure is 152 °C; as for `Cc1nc(NC(=O)c2cnn3c(C4CC4)cc(-c4ccc(Cl)cc4)nc23)sc1S(=O)(=O)NC(C)(C)CO`, 293 to 294 °C.
Take `Cn1c(COc2ccc(CC3SC(=O)NC3=O)cc2)nc2ccc(Oc3ccc(NC(=O)c4ccccc4)cc3)cc21` (stereo not given): the melting point was 200 to 204 °C.
As for `CCCc1nc(CSc2ccc(CCC(=O)O)cc2)c(C(=O)O)n1Cc1cc2c(cc1Cl)OCO2`, the figure is 171 °C; as for `COC(=O)CCn1c(=O)n(CCN2CCN(c3ccccc3C)CC2)c(=O)c2cscc21`, 149 to 150 °C.
Regarding `Cn1c2ccccc2c2cccc(N)c21`, the melting point fell in the range of 90 to 92 °C.
`CC1(C)OCC(Cc2ccc(C=Cc3ccc([N+](=O)[O-])cc3)cc2)O1` (stereo not given) gave a melting point of 146 to 147 °C.
Turning to `Oc1cc(OCCCCCCCCCCOc2ccc(C(=S)c3ccc(-c4ccccc4)cc3)c(O)c2)ccc1C(=S)c1ccc(-c2ccccc2)cc1`, the melting point was in the range of 125 to 127 °C.
As for `Cc1cccc(NC(=O)NCC(=O)N(CC(=O)N(C)c2ccc(F)cc2F)c2ccccc2)c1`, the figure is 100 °C.
For the compound `CCOC(=O)Cn1nc(-c2cc(Cl)ccc2O)nc1-c1cc(Cl)ccc1O`, the melting point lay in the range of 195 to 200 °C.
For `COc1ccc(-c2nc(CCCCCc3nnn[nH]3)oc2-c2ccc(OC)cc2)cc1` the value was 150 °C; for `CCc1nnc2c(OC)nc3cc(OC)ccc3n12`, 184 to 188 °C.
As for `CCOC(=O)C(NC(=O)OCc1ccccc1)C(=O)OCC`, the figure is 36.5 to 37 °C; as for `COc1c2c(c(OC)c(OC)c1OC)CC(CCCCOc1ccc(C(=O)O)cc1)C2`, 136 to 138 °C; as for `CCN(c1cc(Cl)c(Cl)cc1Cl)C(C(=O)O)c1ccccc1OC` (stereo not given), 92.7 °C.
For `O=C(NC(=O)c1c(Cl)cccc1Cl)Nc1ccc(Cl)c(Cl)c1` the value was 232 °C.
The compound `O=C1C2=CC=CCC2C(O)N1CCN1CCC(c2noc3cc(F)ccc23)CC1` (stereo not given) registered a melting point of 172 to 173 °C.
As for `COCN1C(=O)C(=C/c2ccccc2)/C(=C\c2cc(OC)c(OC)c(OC)c2)C1=O`, the figure is 127 to 128 °C; as for `c1ccc(COc2ccc(Cn3cnc4c(-c5ccco5)ncnc43)cc2)cc1`, 145 to 146 °C; as for `COC(NC(=O)c1ccccc1O)C(Cl)(Cl)Cl` (stereo not given), 117 to 118 °C.
For `O=C(Nc1ccc(OCCN2CCOCC2)c2ccccc12)c1cccc(N2CCCCC2)c1` the value was 147 to 148 °C; for `CC(C)(CF)c1cc(Cl)nnc1Cl`, 36 to 38 °C.
For `O=C(Cc1ccc2ccccc2c1OCC1CO1)NCCO[N+](=O)[O-]` (stereo not given) the value was 67 to 71 °C; for `Cc1nc2ccccc2n1-c1ccccc1`, 46 to 48 °C.
In the case of `Oc1ccc(F)c2c1C[C@@H](N(C1CCC1)C1CCC1)CO2`, the melting point lay within 170 to 172 °C.
As for `CCOC(=O)CCc1cc(O)nn1C1CCCCC1`, the figure is 173 to 174 °C; as for `O=C1c2ccccc2C(=O)c2cc(Br)c(Br)cc21`, above 300 °C; as for `COc1ccc(-n2nccc2-c2nn(-c3cccc(C(F)(F)F)c3)ccc2=O)cc1`, 173 to 174 °C.
With `COc1ccc(C(=O)C2CCC(C)(C(=O)O)C2(C)C)cc1` (stereo not given), the melting point was 165 to 166 °C.
`CC1(C)C=Cc2c(ccc3c2C(=O)C(O)=CC3=O)O1` had a melting point of 208 °C.
As for `N#CC(=NNc1ccc(C2=NNC(=O)CC2)cc1)C(N)=C(C#N)C#N`, the figure is above 300 °C; as for `COC(=O)c1ccc(C(=O)O)cc1C`, 134 to 136 °C; as for `CC1(c2cccc(C3(O)CCCCC3)c2)OCCO1`, 55 to 57 °C.
For `O=C(O)C(Cc1ccc(O)cc1)NC(=O)C(CS)C(F)(F)F` (stereo not given) the value was 184 to 187 °C; for `COc1ccc(N2CCN(CC(O)COc3ccc(OCc4ccccc4)cc3)CC2)c(OC)c1` (stereo not given), 110 to 112 °C.
For `CCOc1cc(CN2CCc3cc(O)ccc3C2)cc(OCC)c1OCC` the value was 140 to 142 °C; for `CN1CCC(OC2c3ccccc3CCn3cc(-c4ccc(Br)cc4)nc32)CC1` (stereo not given), 142 °C.
`CN1Cc2c(C#N)ncn2-c2ccc(Cl)cc2C1=O`: the melting point lay in the range of 272 to 275 °C.
For `CNc1cc(N2CCCNCC2)ccc1S(=O)(=O)c1cccc(F)c1` the value was 153 to 154 °C; for `CCOC(=O)C1=C(C)N(C(C)=O)C(c2csc(C)n2)=NC1c1ccc(F)cc1` (stereo not given), 140 to 142 °C.
For `CCC(OC)(c1cccc(OCc2ccc3c(-c4ccoc4)cc(C#N)cc3c2)c1)c1nccs1` (stereo not given) the value was 156 to 157 °C; for `CCC(COC(=O)c1ccc(N)c(Cl)c1OC)(c1cccs1)N(C)C` (stereo not given), 110 to 112 °C; for `CC(Oc1ccccc1)C(=O)NCCO[N+](=O)[O-]` (stereo not given), 74 to 75 °C.
For `O=C1c2ccccc2-c2nc3ccc(O)cc3c(Cl)c21` the value was 253 °C; for `CNC(=S)NN=C(CCCNC(=O)c1ccccc1)c1ccccc1`, 114 to 118 °C.
As for `O=C(Nc1cccc(Cc2ccccc2)c1)c1ccn2c1CSC2c1cccnc1` (stereo not given), the melting point came out at 140 °C.
For `CCCCc1c(OC)cc(C(=O)O)nc1Cl` the value was 104 to 106 °C.
`COc1ccccc1NCCN1CCC(C(=O)c2ccc(F)cc2)CC1`: the melting point fell in the range of 116 to 120 °C.
